Source: patent US10183944B2 (Asana Biosciences, LLC, priority 2011, dated 2019)
Where “and” joins values, the source holds several entries; their conditions need not be identical. Equal values may be shown once. Read-outs that look alike come from different tables or passages of the source. Marks after values point to notes of the source that are not given here.

Assays:
[1] = tested on: Arthus reaction in female c57BL/6 mice; test: In vivo acute study: Arthus reaction model in mice; parameters: species or system mouse; details: for OD % Inhibition: dye extravasation (OD 610 nm)
Excerpt: Arthus reaction is a type of local type III hypersensitivity reaction. Type III hypersensitivity reactions are immune complex-mediated, and involve the deposition of antigen/antibody complexes mainly in the vascular walls, serosa (pleura, pericardium, synovium), and glomeruli. This involves formation of antigen/antibody complexes after the intradermal injection of an antibody. If the animal was previously injected with antigen and dye (has circulating antigen), an Arthus reaction occurs. This manifests as local vasculitis due to deposition of immune complexes in dermal blood vessels. Activation of complement and recruitment of PMNs ensue, resulting in an inflammatory response and extravasation of dye to the skin. Compounds which can inhibit this complex process can have therapeutic implications in wide range of inflammatory and auto-immune disorders. See, Pine, “Inflammation and bone erosion are suppressed in models of rheumatoid arthritis following treatment with a novel Syk inhibitor”; Clin. Immunol. (2007) 124 (3): 244-57; and Sylvia, “R-406, an Orally Available Spleen Tyrosine Kinase Inhibitor Blocks Fc Receptor Signaling and Reduces Immune Complex-Mediated Inflammation”, JPET 319:998-1008, 2006, which are herein incorporated by reference.
Female c57BL/6 mice were given an antigen injection in which the antigen was 0.1% Ovalbumin (OVA) in PBS containing 1% Evans blue (EB) at the concentration of 10 mL/kg intravenously under Isoflurane anesthesia [2.5 mg/mouse with a body weight of 25 g]. Ten minutes after antigen injection; the animals were injected with the rabbit anti-OVA IgG (50 μg in 25 μL/site) (Polysciences; Cat #23744) intradermally on the shaved back at two top locations. Animals were also injected with phosphate buffered saline (PBS, 25 μL) intradermally on the back at two bottom and opposite locations to serve as negative control. The mice were euthanized by cervical dislocation 4 hours after antigen (Ovalbumin) challenge. Skin tissue was assessed for edema by tracing the edema area on to a transparent plastic sheet. Punch biopsies of the injection sites were collected.
Edema area was measured manually by scale. Two diameters were taken and averaged for each animal.
Punch biopsies of the injection sites (using 10 mm skin biopsy punches) were incubated in 2 mL of sodium sulfate: acetone mixture (0.6+1.4 mL) at room temperature for 16-18 hours. The supernatants were removed from digested tissues by centrifuging at 4000 rpm for 10 minutes, filtered and were read spectrophotometrically at 610 nm.
The percent inhibition of dye leakage was calculated with respect to control by the formula: […]
The percent inhibition of edema area was calculated with respect to control by the formula: […]
Means of different groups were compared with control using One way ANOVA followed by Dunnett's test. Significance was represented as follows.

RBL2H3 cells = test: Degranulation assay: β-hexosaminidase release during immune complex mediated degranulation; format: cell-based, rat; details: Rattus norvegicus, RBL-2H3; for inhibition at 1 µM: read-out: Degranulation % inhibition at 1 μM; for EC50: read-out: Degranulation EC50
Procedure, shortened: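 RBL2H3 cells sensitized overnight (or 24 h) with anti-DNP rat IgE, pretreated 15 min with compounds in 0.5% DMSO, then challenged with DNP-BSA for 45–60 min. β-Hexosaminidase in supernatant read fluorometrically (Ex 355/Em 460 nm) with β-NAG substrate, 30 min RT; % release/inhibition calculated.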

[2] = Assay Protocol A (24 well format)
[3] = Assay Protocol B (96 well format)

SMILES	EC50 (RBL2H3 cells; [2])	inhibition at 1 µM (RBL2H3 cells; [2])	inhibition at 1 µM (RBL2H3 cells; [3])	EC50 (RBL2H3 cells; [3])	further results
O=C(O)CC1CCN(c2ccc(Nc3nc(N4CCCCCC4)nc4cn[nH]c(=O)c34)cn2)CC1 [Example 108, 2-(1-(5-((2-(azepan-1-yl)-5-oxo-5,6-dihydropyrimido[4,5-d]pyridazin-4-yl)amino)pyridin-2-yl)piperidin-4-yl) acetic acid]	–	–	98%	68 nM	–
N#CCC1CCN(c2nc(Nc3ccc(N4CCC(O)CC4)cc3)c3c(=O)[nH]ncc3n2)CC1 [Example 189, 2-(1-(4-((4-(4-hydroxypiperidin-1-yl)phenyl)amino)-5-oxo-5,6-dihydropyrimido[4,5-d]pyridazin-2-yl)piperidin-4-yl)acetonitrile]	–	–	98%	14 nM	–
N#CCC1CCN(c2nc(Nc3ccc(N4CCN(CCO)CC4)cc3)c3c(=O)[nH]ncc3n2)CC1 [Example 191, 2-(1-(4-((4-(4-(2-hydroxyethyl)piperazin-1-yl)phenyl)amino)-5-oxo-5,6-dihydropyrimido[4,5-d]pyridazin-2-yl)piperidin-4-yl)acetonitrile]	–	–	92%	21 nM	–
O=C(O)C1CC12CCN(c1ccc(Nc3nc(N4CCCCCC4)nc4cn[nH]c(=O)c34)cc1)CC2 (stereo not drawn) [Example 62, 6-(4-((2-(azepan-1-yl)-5-oxo-5,6-dihydropyrimido[4,5-d]pyridazin-4-yl)amino)phenyl)-6-azaspiro[2.5]octane-1-carboxylic acid]	–	–	100%	49 nM	–

Further lines, with some results ahead:

EC50 (RBL2H3 cells; [2])	SMILES	inhibition at 1 µM (RBL2H3 cells; [2])	inhibition at 1 µM (RBL2H3 cells; [3])	EC50 (RBL2H3 cells; [3])	further results
86 nM	Cl.O=c1[nH]ncc2nc(-c3ccccc3)nc(Nc3ccc(CN4CCNCC4)cc3)c12 [Example 7, 2-phenyl-4-(4-(piperazin-1-ylmethyl)phenylamino)pyrimido[4,5-d]pyridazin-5(6H)-one hydrochloride]	92%	–	–	Edema area % Inhibition ([1]; dose 3 mg/Kg): 41*** %; Edema area % Inhibition ([1]; dose 10 mg/Kg, hydrochloride): 45*** % and 53*** % and 30%; Edema area % Inhibition ([1]; dose 30 mg/Kg, hydrochloride): 68*** % and 74*** %; OD % Inhibition ([1]; dose 3 mg/Kg): 40*** %; OD % Inhibition ([1]; dose 30 mg/Kg, hydrochloride): 67*** % and 65*** %
47 nM	O=C(O)C1CCN(c2ccc(Nc3nc(-c4ccccc4)nc4cn[nH]c(=O)c34)cc2)CC1 [Example 13, 1-(4-(5-oxo-2-phenyl-5,6-dihydropyrimido[4,5-d]pyridazin-4-ylamino)phenyl)piperidine-4-carboxylic acid]	100%	–	–	Edema area % Inhibition ([1]; dose 10 mg/Kg): 53*** %; Edema area % Inhibition ([1]; dose 30 mg/Kg): 40** %; OD % Inhibition ([1]; dose 10 mg/Kg): 27%; OD % Inhibition ([1]; dose 30 mg/Kg): 30%
19 nM	O=C(O)C1CC12CCN(c1ccc(Nc3nc(-c4ccccc4)nc4cn[nH]c(=O)c34)cc1)CC2 (stereo not drawn) [Example 19, 6-(4-(5-oxo-2-phenyl-5,6-dihydropyrimido[4,5-d]pyridazin-4-ylamino)phenyl)-6-azaspiro[2.5]octane-1-carboxylic acid]	100%	–	–	Edema area % Inhibition ([1]; dose 3 mg/Kg): 48*** %; Edema area % Inhibition ([1]; dose 30 mg/Kg): 60*** %; OD % Inhibition ([1]; dose 3 mg/Kg): 53*** %; OD % Inhibition ([1]; dose 30 mg/Kg): 60*** %
